Measurements taken from ChEMBL document CHEMBL1157539, “Thousands of chemical starting points for antimalarial lead identification” (Nature, 2010).

Test system: Plasmodium falciparum
Experiment: GSK_TCMDC: Inhibition of Plasmodium falciparum 3D7 in whole erythrocytes, using parasite LDH activity as an index of growth.
Format: functional, organism-based

Row | Compound | XC50 (Plasmodium falciparum, 3D7) | XC50
1 | c1ccc2sc(Sc3ncnc4sccc34)nc2c1 | 0.734 µM | 
2 | CC(C)c1ccc(N(CC(=O)N/N=C/c2ccc(C(F)(F)F)cc2)S(=O)(=O)c2ccc(C(F)(F)F)cc2)cc1 | 0.846 µM | 
3 | CCCCCCC1(C)N=C(N)N=C(N)C1c1ccc(Cl)c(Cl)c1 (stereo unspecified) | 0.132 µM | 
4 | O=C(Nc1ccc2c(c1)OCO2)NC1CCN(c2ccnc(Nc3ccc(F)cc3)n2)C1 (stereo unspecified) | 0.743 µM | 
5 | Clc1ccc(Cc2nc3ccccc3[nH]2)cc1Cl | 0.246 µM | 
6 | COc1ccccc1N1CCN(C(C(=O)NCc2ccc(C)cc2)c2ccc(C)cc2)CC1 (stereo unspecified) | 0.932 µM | 
7 | N=C(N)NN=Cc1cc2ccccc2c2ccccc12 | 0.18 µM | 
8 | Cc1noc(C)c1-c1ccc2c(Nc3cccc4c3-c3ccccc3C4=O)c(C(=O)NCc3ccccc3I)cnc2c1 | 0.627 µM | 
9 | O=C(N[C@H]1CCN(CCc2ccc(O[C@H]3CCNC3)c(Cl)c2)C1)c1ccc(Cl)c(Cl)c1 | 0.89 µM | 
10 | Cc1ccc(C(=O)Nc2ccc(F)cc2)cc1-c1nc(NC2CC(C)(C)NC(C)(C)C2)nc2c1ccc(=O)n2-c1c(F)cccc1F | 0.684 µM | 
11 | Cc1ccc(CNC(=O)c2ccc(CN3CCCN(Cc4ccsc4)CC3)cc2)cc1 | 0.868 µM | 
12 | C[C@H](CNc1ccnc(Nc2ccc3[nH]c(=O)[nH]c3c2)n1)c1ccccc1 |  | 0.7 µM
13 | CN1C(=O)C(=O)N(CCCCCONC(=N)N)C1=S | 0.197 µM | 
14 | CCn1c(-c2nonc2N)nc2c(-c3cccc(Cl)c3)ncc(OCCCNCCc3c[nH]cn3)c21 | 0.983 µM | 
15 | Cc1cnc(C[S+]([O-])c2nc3cc(C(F)(F)F)ccc3[nH]2)cc1OCc1ccccc1 (stereo unspecified) | 0.742 µM | 
16 | CN(C)c1ccc(/C=C2\S/C(=N\c3ccccc3)N(c3ccccc3)C2=O)cc1[N+](=O)[O-] | 0.778 µM | 
17 | Cc1ccccc1Nc1nc(Nc2ccccc2)c2ccccc2n1 | 0.998 µM | 
18 | O=C(C=Cc1ccc(Cl)c(Cl)c1)NCCCCCN1CCC(c2n[nH]c3ccccc23)CC1 | 0.638 µM | 
19 | N#Cc1ccc(-c2ccc(C(=O)NCCCCN3CCC(c4ccc5c(c4OCC(N)=O)CCCC5)CC3)cc2)cc1 | 0.984 µM | 
20 | COc1ccc(C2C(C(=O)Nc3cc(C)ccc3OC)c3ccccc3C(=O)N2C)cc1 (stereo unspecified) | 0.982 µM | 
21 | COc1ccc(S(=O)(=O)N(c2cc(Br)cc3c2OCC3)S(=O)(=O)c2ccc(OC)c(N3CCN(C)CC3)c2)cc1N1CCN(C)CC1 | 1.17 µM | 
22 | O=C(NC1CCN(CC2(c3ccc(Cl)cc3)CCC2)CC1)c1cc[nH]n1 | 0.421 µM | 
23 | CC(=O)Nc1ccc(CN2CCC(CNC(=O)c3cc(-c4cccc(Cl)c4)cs3)C2)cc1 (stereo unspecified) | 1.12 µM | 
24 | C[C@H](Cc1ccc(OCCCCCCOc2ccc(C[C@@H](C)NC[C@H](O)c3cccc(Cl)c3)cc2)cc1)NC[C@H](O)c1cccc(Cl)c1 | 0.296 µM | 

Row | Compound | XC50 (Plasmodium falciparum, 3D7) | XC50
25 | CCC(=O)c1cc(C(=O)NCCc2cccc(OC)c2)ccc1OC | 0.902 µM | 
26 | COc1ccc(OCC(=O)Nc2nc(-c3ccc(OC)cc3)c(C)s2)cc1 | 1.95 µM | 
27 | O=C(/C=C/c1ccc(Cl)c(Cl)c1)NCCCCCN1CCCC(CNS(=O)(=O)c2ccc(F)cc2)C1 (stereo unspecified) | 1.16 µM | 
28 | Cc1ccc(NC(=O)c2nc(N3CCN(c4ccncc4)CC3)ccc2Cl)cc1F | 0.812 µM | 
29 | O=C(/C=C/c1ccc(Cl)c(Cl)c1)NC1CCC(CN2CCC(c3c[nH]c4ccccc34)C(O)C2)CC1 (stereo unspecified) | 0.719 µM | 
30 | CCCNCc1ccc(-c2ccc(CN(CCOC)C(=O)c3cscn3)cc2)nc1 | 0.178 µM | 
31 | COc1cc(Nc2nc(N)n(C(=O)c3ccc4c(c3)OCO4)n2)cc(OC)c1OC | 1.13 µM | 
32 | CCCCOc1ccc(C(O)C(CN2CCCCC2)c2ccccc2)cc1 (stereo unspecified) | 0.893 µM | 
33 | COc1cc(CN/C(=N/c2ccc(-c3ccccc3)cc2)Nc2ccc(C#N)cc2O)cc(OC)c1 | 0.718 µM | 
34 | CC(C)CCn1c(Sc2ccc(C#N)c([N+](=O)[O-])c2)nnc1-c1ccc(N(C)C)cc1 | 0.786 µM | 
35 | Oc1ccc(CCNc2nc(NCc3ccccc3Oc3ccc(C(F)(F)F)cc3)nc(N3CCNCC3)n2)cc1 | 1.16 µM | 
36 | Cc1[nH]c(C)c(-c2ccc(OCCSc3ccncc3)cc2)c(=O)c1Br | 0.393 µM | 
37 | Cc1nc2nc(N)nc(N)c2c(C)c1Cc1ccc(C(F)(F)F)cc1 | 0.747 µM | 
38 | O=C(c1cccc(-c2cccc(-c3nc4ccccc4[nH]3)c2)c1)N1CCCCC1CN1CCC(O)C1 (stereo unspecified) | 0.728 µM | 
39 | CS(=O)(=O)c1ccc(CCNCc2ccc(-c3ccc(CNC4CCN(Cc5ccccc5)CC4)cc3)nc2)cc1 | 0.249 µM | 
40 | COc1ccc2nccc([C@@H](O)CN3CCC(NCc4ccc5c(c4)sc(=O)n5C)CC3)c2c1 | 0.258 µM | 
41 | COc1ccc(OCC(=O)Nc2cc(-c3nc4ccccc4[nH]3)ccc2Cl)cc1 | 0.903 µM | 
42 | c1cc(CNCC2CCCO2)cc(-c2csc(-c3nc4ccccc4[nH]3)c2)c1 (stereo unspecified) | 1.04 µM | 
43 | CCOC(=O)c1c(C)n(C2CCCCCC2)c2cc(Br)c(O)cc12 | 1.2 µM | 
44 | CC(C)(C)c1ccc(CN2CCCCC(NC(=O)c3cc(-c4ccccc4Cl)cs3)C2)cc1 (stereo unspecified) | 1.12 µM | 
45 | COc1cccc(Cc2cnc3nc(N)nc(N)c3c2C)c1 | 0.173 µM | 
46 | Cn1cnnc1Sc1ccc(CN2CCOc3ccc(C4=CCCCC4)cc3C2)o1 | 0.849 µM | 
47 | CC(C)N1CCC(N(Cc2ccc(-c3ccc(C(F)(F)F)cc3)cc2)C(=O)CCCn2c(CCc3cccc(F)c3F)nc(=O)c3ccccc32)CC1 | 0.972 µM | 
48 | N#Cc1ccc(NC(=O)Nc2ccc3c(c2)CCN(C2CCC2)CC3)cc1 | 0.628 µM | 

Row | Compound | XC50 (Plasmodium falciparum, 3D7) | XC50
49 | CCOC(=O)c1ccc(NC(=O)NNC(=O)c2ccc(CCN3CCC(c4nc(COCC(F)(F)F)c(-c5ccc(F)cc5)o4)CC3)cc2)cc1 | 0.574 µM | 
50 | FC(F)(F)c1ccc2c(C=Cc3ccncc3)c[nH]c2c1 | 0.707 µM | 
51 | CN(C)CCCN1CCN(C(=O)c2cccc(-c3noc(C(F)(F)F)n3)c2)CC1 | 0.353 µM | 
52 | CS(=O)(=O)CCNCc1cccc(-c2cc3c(Nc4ccc5c(cnn5Cc5ccccc5)c4)ncnc3s2)c1 | 0.553 µM | 
53 | O=C(/C=C/c1ccc(Cl)c(Cl)c1)NCCCCCN1CCCN(C(=O)Nc2cccc(C(F)(F)F)c2)CC1 | 0.866 µM | 
54 | CN(C)CCNCc1cccc(-c2ccc3c(Nc4cc(O)c(Cl)cc4F)ccnc3c2)c1 | 0.549 µM | 
55 | c1ccc2c(C3CCN(CCCCOc4ccc5c(c4)CCN(C4CCC4)CC5)CC3)c[nH]c2c1 | 0.705 µM | 
56 | O=C(c1ccc([N+](=O)[O-])o1)N1CCC(Cc2ccc(C(F)(F)F)cc2)CC1 | 0.166 µM | 
57 | Cc1cc2ncn(-c3nccc(NCc4ccc(F)c(C)c4)n3)c2cc1C | 0.99 µM | 
58 | COCCCNc1sc(S(=O)(=O)c2ccccc2)nc1S(=O)(=O)c1ccc(C)cc1 | 0.802 µM | 
59 | Cc1cc(-c2ccc(NC(=O)N3CCc4cc(Br)c(N5CCN(C)CC5)cc43)cc2)cc(C)n1 | 1.01 µM | 
60 | O=C(Nc1ccc(C(F)(F)F)cc1)c1ccc(S(=O)(=O)NC2CCCN(CC3CCCCC3)C2)cc1 (stereo unspecified) | 0.718 µM | 
61 | COc1cc2ccccc2c(CON2C(=N)N=C(N)NC2(C)C)c1OC | 0.0464 µM | 
62 | CC(C)c1ccc(NC(=O)Nc2ccc(Cn3ncc(N4CCCNCC4)c(Cl)c3=O)cc2)cc1 | 1.05 µM | 
63 | COc1ccc2nccc([C@@H](O)CN3CCC(NC(=O)/C=C/c4ccc5[nH]c(=O)ccc5c4)CC3)c2c1 | 0.967 µM | 
64 | CCN(CC)CCCN(CCCN(CC)CC)c1cc(C)nc(Nc2ccc3cc(Br)ccc3c2)n1 | 0.567 µM | 
65 | O=C(/C=C/c1cccc(Br)c1)NCCCCCN1CCC(c2c[nH]c3ccccc23)CC1 | 0.634 µM | 
66 | COC(=O)c1ccc2nc(-c3ccc(/C=C/C(=O)NC4CCN(Cc5ccccc5)CC4)cc3)[nH]c2c1 | 0.711 µM | 
67 | CCN(CCCN1CCCCC1)c1cc(C)nc(Nc2cc(C(F)(F)F)ccc2C)n1 | 0.862 µM | 
68 | O=C(Nc1nc(-c2ccccn2)cs1)c1ccc(Br)s1 | 1.06 µM | 
69 | CC(=NO)C1=C(O)C(c2ccccc2)N(c2ccccc2)C1=O (stereo unspecified) | 0.701 µM | 
70 | Cc1cccc2nc(-c3ccc(-c4ccc(CN5CC(C)OC(C)C5)cc4)cc3)[nH]c12 (stereo unspecified) | 0.523 µM | 
71 | Cc1ccc(OCC2CCN(c3ncc(C(=O)NC4CC4)cc3Cl)CC2)cc1 | 1.09 µM | 
72 | N=C(N)NN=CC(=O)Nc1ccc(Cl)c(Cl)c1 | 0.737 µM | 

Row | Compound | XC50 (Plasmodium falciparum, 3D7) | XC50
73 | O=S(=O)(Nc1cccc(CCN2CCC(N3CCCCC3)CC2)c1)c1ccccc1C(F)(F)F | 1.15 µM | 
74 | NOCCCOc1ccccc1 | 0.321 µM | 
75 | CCCCCn1c(Sc2ccc(C#N)c([N+](=O)[O-])c2)nnc1-c1cc(OC)cc(OC)c1 | 0.956 µM | 
76 | CN(C)S(=O)(=O)c1cc(-c2ccc3nccc(-c4cccc(S(N)(=O)=O)c4)c3c2)cnc1N | 0.251 µM | 
77 | Cc1cccc2nc(-c3ccc(-c4cccc(NC(=O)COc5ccccc5C(N)=O)c4)s3)[nH]c12 | 0.734 µM | 
78 | O=C(NCCc1ccc(Cl)c(Cl)c1)[C@@H]1CCCN1C(=O)c1ccc(O)c(-c2cccc(C(F)(F)F)c2)c1 | 0.825 µM | 
79 | O=C(Nc1ccccc1)Nc1cccc(-c2ccc(-c3nc4cc(C(F)(F)F)ccc4[nH]3)cc2)c1 | 0.231 µM | 
80 | CN1CCCN(c2ccnc3cc4c(cc23)N(C(=O)c2ccc(Cl)cc2)CC4)CC1 | 0.791 µM | 
81 | CC(C)CCNC(=O)c1cc(C(=O)c2cc(F)ccc2O)cn(CCC(C)C)c1=O | 0.753 µM | 
82 | COc1ccc(-c2nc3c(N)nc(N)nc3nc2-c2ccccc2Cl)cc1.COc1ccc(-c2nc3nc(N)nc(N)c3nc2-c2ccccc2Cl)cc1 | 0.549 µM | 
83 | Cc1[nH]c2ccccc2c1C(=O)C(C)Sc1nnc(-c2ccccc2F)o1 (stereo unspecified) | 0.691 µM | 
84 | Cc1cccc2nc(-c3cccc(-c4ccc(NC(=O)Nc5ccc6c(c5)OCO6)cc4)c3)[nH]c12 | 0.145 µM | 
85 | Cc1cc(NC(=O)CCN2CCN(c3cccc(Cl)c3Cl)CC2)ccc1N1CCN(C(C)C)CC1 | 0.847 µM | 
86 | CCNc1cc(C(=O)N[C@@H](Cc2ccccc2)[C@H](O)CNCc2cc(OC)cc(OC)c2)cc(N2CCCC2=O)c1 | 0.736 µM | 
87 | CCCCCN1CCCC(CNS(=O)(=O)c2ccc(C(=O)Nc3ccc(C(F)(F)F)cc3)cc2)C1 (stereo unspecified) | 0.916 µM | 
88 | COc1ccc2nc(-c3cc(-c4ccc(NC(=O)C(C)C)cc4)cnc3N)[nH]c2c1 | 0.557 µM | 
89 | CCc1ccccc1N1CCN(CCCC(=O)c2ccc(NC(=O)c3ccc(Cl)cc3)cc2)CC1 | 1.31 µM | 
90 | O=C(Nc1cccc(-c2cccc(-c3nc4cc(F)ccc4[nH]3)c2)c1)Nc1ccc2c(c1)OCO2 | 0.137 µM | 
91 | O=C(Nc1cccc(C(F)(F)F)c1)NC1CCN(c2ccnc3cc(Cl)ccc23)CC1 | 0.289 µM | 
92 | N=C(N)c1ccc(-c2cc3ccc(C(=N)N)cc3[nH]2)cc1 | 0.0599 µM | 
93 | CC(C)(CNC(=O)[C@H]1CCCN1)c1nc(-c2ccc(Cl)c(O)c2)c(-c2ccncc2)[nH]1 | 1.27 µM | 
94 | O=C(Nc1cccc(N2CCC(NCCCn3ccnc3)CC2)c1)c1cccc(C(F)(F)F)c1 | 1.11 µM | 
95 | Nc1ccc(-c2ccc3ccnc(N)c3c2)cn1 | 0.353 µM | 
96 | CCCCCCCCc1c(C)nc(C)c(I)c1O | 0.737 µM | 
